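How tested: cells in 96-well plates exposed to compound for 48 hours at five concentrations. Definition used: TGI = concentration required for complete inhibition of growth.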
Experiments:
Assay in all cases: DTP human tumour cell line panel, 48 h
[1] = system: SK-MEL-2 melanoma
[2] = system: SK-MEL-28 melanoma
[3] = system: OVCAR-8 ovarian
[4] = system: 786-0 renal
[5] = system: CCRF-CEM leukemia
[6] = system: NCI-H23 lung
[7] = system: OVCAR-3 ovarian
[8] = system: HOP-92 NSCLC
[9] = system: M14 melanoma
[10] = system: OVCAR-4 ovarian
[11] = system: RXF 393 renal
[12] = system: NCI-H226 lung
[13] = system: EKVX NSCLC
[14] = system: IGROV1 ovarian
[15] = system: SW-620 colon
[16] = system: T-47D breast
[17] = system: SNB-75 CNS
[18] = system: HCT-15 colon
[19] = system: CAKI-1 renal
[20] = system: U251 CNS
[21] = system: UACC-62 melanoma
[22] = system: SN12C renal
[23] = system: NCI-H522 lung
[24] = system: A549 NSCLC
[25] = system: RPMI-8226 leukemia
[26] = system: MDA-MB-231 breast
[27] = system: SNB-19 CNS
[28] = system: KM12 colon
[29] = system: NCI/ADR-RES ovarian
[30] = system: HL-60(TB) leukemia
[31] = system: SK-OV-3 ovarian
[32] = system: BT-549 breast
[33] = system: HS 578T breast
[34] = system: MDA-MB-435
[35] = system: MCF7 breast
[36] = system: DU-145 prostate
[37] = system: HT29 colon
[38] = system: SK-MEL-5 melanoma
[39] = system: HCC-2998 colon
[40] = system: ACHN renal
[41] = system: SF-295 CNS
[42] = system: SF-539 CNS
[43] = system: HOP-62 NSCLC
[44] = system: NCI-H460 lung
[45] = system: COLO 205 colon
[46] = system: MOLT-4 leukemia
[47] = system: OVCAR-5 ovarian
[48] = system: PC-3 prostate
[49] = system: A498 renal
[50] = system: UO-31 renal
[51] = system: UACC-257 melanoma
[52] = system: TK-10 renal
[53] = system: MALME-3M melanoma
[54] = system: MDA-N
[55] = system: HCT-116 colon
[56] = system: SF-268 CNS
[57] = system: LOX IMVI melanoma
[58] = system: K-562 leukemia

Measured: TGI

COc1cc2c(cc1OC)C1C(O)C(OC)C(Br)C3(Br)CCN(C2)C13 (centres undefined)
not listed: [57] | [58]
> 100 µM: all other assays above

O=C(Nc1ccn(C2CC(O)C(CO)O2)c(=O)n1)c1ccccc1 (centres undefined)
not listed: [8] | [11] | [39] | [50] | [53]
> 100 µM: all other assays above

From PubChem BioAssay (NCI)
